Results reported in article PMC11412489, “Coumarin derivatives as new anti-biofilm agents against Staphylococcus aureus” (PLOS ONE, 2024).
Entries after “also recorded” stand apart in the source; their conditions may differ. Read-outs that look alike come from different tables or passages of the source.

Legend:
Assay type in all cases: cell-based, Staphylococcus aureus
[1] = tested on: S. aureus; experiment: Antibacterial activity (bacterial growth inhibition); settings: at 100 μg/mL; for inhibition at 100 µg/mL: Staphylococcus aureus, read-out: Antibacterial Activity (% Inhibition ± SEM)
[2] = tested on: biofilm of S. aureus ATCC 6538; experiment: 96-well plate crystal violet assay for biofilm inhibition; settings: for inhibition at 3.125 µg/mL / inhibition at 6.25 µg/mL / inhibition at 12.5 µg/mL / inhibition at 25 µg/mL / inhibition at 50 µg/mL / inhibition at 100 µg/mL: Staphylococcus aureus, ATCC6538
Description: The quantitative determination of biofilm inhibition was carried out by the crystal violet assay on a sterile 96-well plate with slight modifications. The glycerol stock of S. aureus was revived overnight at 37°C at 80 rpm. The overnight culture was then diluted 100 folds in fresh BHI broth, supplemented with 0.25% glucose. The cell density was adjusted to 1×10^7 and 195μL of the cell suspension was added in 96-well plate. […] Following that, the plate was washed with sterile distilled water in order to decant the non-adherent cells, and media. The plate was then dried at 60°C for 1 hour, and 200 μL of 0.1% (w/v) crystal violet was added to stain biofilm for 20 minutes. The plate was washed again, air dried, and dispensed 30% (v/v) acetic acid in each well to dissolve the biofilm. The inhibition of biofilm formation was analyzed by measuring the absorbance at 595 nm using the microplate reader (Multiskan Sky, Thermo Scientific, USA). The percent inhibition of biofilm formation was calculated via the following formula: 100−ƛTreated−ƛBlank/ƛControl−ƛBlank×100 Whereƛ=absorbance

[3] = tested on: S. aureus biofilm; experiment: Atomic force microscopy analysis of biofilm disruption; settings: compared to control S. aureus cells, 24 hours
Description: The size and structure of disrupted biofilm was analyzed. Briefly, a pure single colony of S. aureus was inoculated in BHI broth and grown for 18–24 hours at 37°C. Following incubation, the cells were diluted in BHI broth, and density was adjusted to 1×10^7 before loading on a sterile silicon chip placed in 24-well plate, then silicon chips were treated with active compounds. The plate was then sealed, and placed in an incubator for 24 hours at 37°C. After incubation, the treated silicon chips were washed with autoclaved distilled water thrice, air dried, and the samples were analyzed by atomic force microscope (Agilent Technologies, USA).

[4] = tested on: biofilm cells of the S. aureus strain (ATCC 6538); experiment: Biofilm analysis by fluorescence microscopy (SYTO-9/PI); settings: SYTO-9/PI staining, S. aureus ATCC 6538, 24 hours
Description: Briefly, 1×10^7 cells were loaded in 96-well plate, and treated with active compounds. Plate was sealed, and incubated for 24 hours at 37°C. Following incubation, plate was washed with sterile distilled water, and cells were stained with […] SYTO-9 and 5 μM PI, for 30 minutes in dark at room temperature. After incubation, the wells were washed again, and air dried. Images were taken, and then visualized by Nikon Eclipse TE2000, USA [23]. Propidium Iodide (PI) staining indicates membrane integrity, as it can only pass through compromised membranes of non-viable cells, giving red fluorescence. On the contrary, Syto-9 can pass through all cells despite of their membrane integrity, and binds to DNA/RNA by emitting green fluorescence.

[5] = S. aureus ATCC 6538, replicate 1, read-out: % Inhibition 1
[6] = S. aureus ATCC 6538, replicate 2, read-out: % Inhibition 2
[7] = S. aureus ATCC 6538, replicate 3, read-out: % Inhibition 3
[8] = S. aureus ATCC 6538, read-out: Mean % Inhibition
[9] = 100 µg/mL, S. aureus ATCC 6538, replicate 1, read-out: % Inhibition 1
[10] = 100 µg/mL, S. aureus ATCC 6538, replicate 2, read-out: % Inhibition 2
[11] = 100 µg/mL, S. aureus ATCC 6538, replicate 3, read-out: % Inhibition 3
[12] = 100 µg/mL, S. aureus ATCC 6538, read-out: Mean % Inhibition
[13] = at 100 μg/mL, biofilm of S. aureus, 24 hours, read-out: Antibiofilm Activity (% Inhibition ± SEM)
[14] = at 100 μg/mL, biofilm of S. aureus, 24 hours

| Structure (SMILES) | inhibition at 100 µg/mL [1] [%] | Antibacterial Activity (% Inhibition ± SEM) [1] | inhibition at 3.125 µg/mL [2, 5] [%] | inhibition at 3.125 µg/mL [2, 6] [%] | inhibition at 3.125 µg/mL [2, 7] [%] | inhibition at 3.125 µg/mL [2, 8] [%] | inhibition at 6.25 µg/mL [2, 5] [%] | inhibition at 6.25 µg/mL [2, 6] [%] | inhibition at 6.25 µg/mL [2, 7] [%] | inhibition at 6.25 µg/mL [2, 8] [%] | inhibition at 12.5 µg/mL [2, 5] [%] | inhibition at 12.5 µg/mL [2, 6] [%] | inhibition at 12.5 µg/mL [2, 7] [%] | inhibition at 12.5 µg/mL [2, 8] [%] | inhibition at 25 µg/mL [2, 5] [%] | inhibition at 25 µg/mL [2, 6] [%] | inhibition at 25 µg/mL [2, 7] [%] | inhibition at 25 µg/mL [2, 8] [%] | inhibition at 100 µg/mL [2, 13] [%] | Antibiofilm Activity (% Inhibition ± SEM) [2, 14] | other results |
| --- | --- | --- | --- | --- | --- | --- | --- | --- | --- | --- | --- | --- | --- | --- | --- | --- | --- | --- | --- | --- | --- |
| Cc1ccc2oc(=O)c(/C=N/Nc3nc(-c4cccc([N+](=O)[O-])c4)cs3)c(Cl)c2c1 [Compound 2, (E)-4-Chloro-6-methyl-3-((2-(4-(3-nitrophenyl)thiazol-2-yl)hydrazono)methyl)-2H-chromen-2-one] | 15 ± 4.53 | low antibacterial effect | 4.05 | 3.79 | 4.17 | 4 | 3.29 | 3.99 | 3.49 | 3.59 | 1.73 | 0.99 | 2.54 | 1.75 | 1.79 | 1.44 | 1.99 | 1.74 | 90 ± 3.24 | high potential to inhibit the biofilms | inhibition at 50 µg/mL [2, 5]: 27%; inhibition at 50 µg/mL [2, 6]: 29.2%; inhibition at 50 µg/mL [2, 7]: 28.5%; inhibition at 50 µg/mL [2, 8]: 28.3%; inhibition at 100 µg/mL [2, 9]: 95%; inhibition at 100 µg/mL [2, 10]: 93.9%; inhibition at 100 µg/mL [2, 11]: 93.6%; inhibition at 100 µg/mL [2, 12]: 94.2%; Biofilm disruption seen by AFM [3]: disrupt and degrade biofilm to varying degrees; Biofilm disruption seen by fluorescence microscopy [4]: Disruption on the surface of biofilm |
| Cc1ccc2oc(=O)c(/C=N/Nc3nc(-c4ccc([N+](=O)[O-])cc4)cs3)c(Cl)c2c1 [Compound 4, (E)-4-Chloro-6-methyl-3-((2-(4-(4-nitrophenyl)thiazol-2-yl)hydrazono)methyl)-2H-chromen-2-one] | 21 ± 4.51 | low antibacterial effect | 2.92 | 1.79 | 3.04 | 2.58 | 7.04 | 8.05 | 9.02 | 8.04 | 6.69 | 5.79 | 5.68 | 6.05 | 29.1 | 30.1 | 28.1 | 29.1 | 90 ± 9.3 | high potential to inhibit the biofilms | inhibition at 50 µg/mL [2, 5]: 66%; inhibition at 50 µg/mL [2, 6]: 67%; inhibition at 50 µg/mL [2, 7]: 66.1%; inhibition at 50 µg/mL [2, 8]: 66.4%; inhibition at 100 µg/mL [2, 9]: 86.8%; inhibition at 100 µg/mL [2, 10]: 84.3%; inhibition at 100 µg/mL [2, 11]: 86.6%; inhibition at 100 µg/mL [2, 12]: 85.9%; Biofilm disruption seen by AFM [3]: disrupt and degrade biofilm to varying degrees; Biofilm disruption seen by fluorescence microscopy [4]: mild to extensive biofilm disruption and degradation |
| O=c1oc2ccccc2cc1-c1csc(N/N=C/c2cc(Cl)cc(Br)c2)n1 [Compound 17, (E)-3-(2-(2-(3-Bromo-5-chlorobenzylidene)hydrazinyl)thiazol-4-yl)-2H-chromen-2-one] | 20 ± 4.64 | low antibacterial effect | 1.64 | 1.36 | 1.84 | 1.61 | 3.64 | 3.52 | 3.97 | 3.71 | 0.03 | 0.03 | 0.01 | 0.0233 | 15.9 | 15.1 | 16.9 | 15.9 | 69 ± 1.75 | high potential to inhibit the biofilms | inhibition at 50 µg/mL [2, 5]: 55.1%; inhibition at 50 µg/mL [2, 6]: 53%; inhibition at 50 µg/mL [2, 7]: 57%; inhibition at 50 µg/mL [2, 8]: 55%; inhibition at 100 µg/mL [2, 9]: 77.9%; inhibition at 100 µg/mL [2, 10]: 77.6%; inhibition at 100 µg/mL [2, 11]: 82.3%; inhibition at 100 µg/mL [2, 12]: 79.3%; Biofilm disruption seen by AFM [3]: Disrupted biofilm surfaces; Biofilm disruption seen by fluorescence microscopy [4]: Disruption on the surface of biofilm |
| C/C(=N\Nc1nc(-c2ccccc2O)cs1)c1cc2ccccc2oc1=O [Compound 15, (E)-3-(1-(2-(4-(2-Hydroxyphenyl)thiazol-2-yl)hydrazono)ethyl)-2H-chromen-2-one] | 73 ± 7.16 |  |  |  |  |  |  |  |  |  |  |  |  |  |  |  |  |  | 34 ± 5.11 | induced biofilm inhibition |  |
| C/C(=N\Nc1nc(-c2ccc(Cl)cc2)cs1)c1cc2ccccc2oc1=O [Compound 11, (E)-3-(1-(2-(4-(4-Chlorophenyl)thiazol-2-yl)hydrazono)ethyl)-2H-chromen-2-one] | 88 ± 4.32 |  |  |  |  |  |  |  |  |  |  |  |  |  |  |  |  |  | 70 ± 7.09 | induced biofilm inhibition; also recorded: dual anti-bacterial and anti-biofilm effect |  |
| O=c1oc2ccccc2cc1-c1csc(N/N=C/c2cccc(Cl)c2)n1 [Compound 18, (E)-3-(2-(2-(3-Chlorobenzylidene)hydrazinyl)thiazol-4-yl)-2H-chromen-2-one] | 32 ± 8.97 |  |  |  |  |  |  |  |  |  |  |  |  |  |  |  |  |  | 25 ± 5.26 |  |  |
